In patent publication US5225528A, “Cyclic hexapeptide oxytocin antagonists” (priority 1990, dated 1993) one finds IC50 and inhibition data, which are given here for seven compounds.

Like-named read-outs stand apart in the source and are kept apart here. Square brackets hold non-standard residues; d marks the D form. Peptide text beside a SMILES is read from it. * marks the point of attachment. dPip(4-aza,4-Cbz) = O=C(O)[C@H]1CN(C(=O)OCc2ccccc2)CCN1; d2Nal = N[C@H](Cc1ccc2ccccc2c1)C(=O)O; dNMeF = CN[C@H](Cc1ccccc1)C(=O)O; X7 = C[N+]12CCC(CC1)C(C(=O)*)C2; Pip = O=C(O)[C@@H]1CCCCN1; dPip = O=C(O)[C@H]1CCCCN1; Cbz = O=C(OCc1ccccc1)*; Dha = C=C(N)C(=O)O; OtBu = CC(C)(C)O*

One test deals with T1, uterine OT receptors (Rattus norvegicus, UniProt P70536).
T1 construct: from tissue; host or cells: uterus of DES-treated rats, crude membranes
T1 sequence (P70536 1-388): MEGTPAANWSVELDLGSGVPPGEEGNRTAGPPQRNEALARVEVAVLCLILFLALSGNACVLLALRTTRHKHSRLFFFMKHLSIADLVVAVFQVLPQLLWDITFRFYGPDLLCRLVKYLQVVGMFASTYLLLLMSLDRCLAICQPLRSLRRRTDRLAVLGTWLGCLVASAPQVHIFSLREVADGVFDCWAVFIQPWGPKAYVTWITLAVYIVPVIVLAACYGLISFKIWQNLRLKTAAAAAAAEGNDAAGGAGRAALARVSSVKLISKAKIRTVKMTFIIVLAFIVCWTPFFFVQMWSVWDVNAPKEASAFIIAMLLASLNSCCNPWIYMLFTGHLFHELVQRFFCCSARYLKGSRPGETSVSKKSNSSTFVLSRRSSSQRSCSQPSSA
The test is described as follows: [^3 H]OT binding to uterine OT receptors, crude membrane preparation of uteri from DES-treated rats. The protocol: Competition studies were conducted at equilibrium (60 minutes; 22° C.) using 1 nM [^3 H]OT in the following assay buffer: 50 mM Tris-HCl, 5 mM MgCl2, and 0.1% BSA, pH 7.4.

The target of a further test is T2, AVP-V1 sites (Rattus norvegicus, UniProt P30560).
T2 construct: crude membrane preparation of male rat liver (AVP-V1 sites); from tissue; host or cells: male rat liver, crude membranes
T2 sequence (P30560 whole entry): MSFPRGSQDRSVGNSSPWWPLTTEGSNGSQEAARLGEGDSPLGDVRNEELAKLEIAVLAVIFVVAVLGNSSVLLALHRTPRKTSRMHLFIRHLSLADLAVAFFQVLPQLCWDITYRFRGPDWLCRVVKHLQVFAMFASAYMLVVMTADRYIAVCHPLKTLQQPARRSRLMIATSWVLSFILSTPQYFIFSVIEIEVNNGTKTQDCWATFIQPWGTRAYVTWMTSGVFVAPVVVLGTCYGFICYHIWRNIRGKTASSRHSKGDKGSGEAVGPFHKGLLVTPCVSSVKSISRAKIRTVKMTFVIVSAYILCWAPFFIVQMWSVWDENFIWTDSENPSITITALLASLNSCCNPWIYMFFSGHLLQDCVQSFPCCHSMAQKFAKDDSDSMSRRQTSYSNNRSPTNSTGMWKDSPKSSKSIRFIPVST
The test is described as follows: [^3 H]AVP binding to crude membrane preparation of male rat liver (AVP-V1 sites). The protocol: (§1) Nonspecific binding (5-10% of the total binding) was determined using 10 μM unlabeled AVP, and the binding reaction was terminated by filtration as described above for the [^3 H]OT binding assay.

In a further test the target is T3, AVP-V2 sites (Rattus norvegicus, UniProt Q00788).
T3 construct: male rat liver (AVP-V1 sites) or kidney medulla (AVP-V2 sites); from tissue; host or cells: male rat kidney medulla, crude membranes
T3 sequence (Q00788 whole entry): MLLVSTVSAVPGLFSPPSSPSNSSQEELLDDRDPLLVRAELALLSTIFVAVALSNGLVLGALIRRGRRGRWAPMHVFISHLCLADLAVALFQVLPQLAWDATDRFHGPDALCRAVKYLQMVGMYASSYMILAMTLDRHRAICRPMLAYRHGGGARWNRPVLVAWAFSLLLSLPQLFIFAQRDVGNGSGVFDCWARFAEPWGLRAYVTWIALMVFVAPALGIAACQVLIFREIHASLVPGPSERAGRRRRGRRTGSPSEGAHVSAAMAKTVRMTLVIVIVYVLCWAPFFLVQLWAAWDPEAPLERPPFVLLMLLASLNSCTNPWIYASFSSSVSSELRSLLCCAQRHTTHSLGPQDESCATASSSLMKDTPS
The test can be described thus: [^3 H]AVP binding to crude membrane preparation of male rat kidney medulla (AVP-V2 sites). As for the experimental part: as §1

[1] abbreviates: rat uterus membranes, 1 nM [^3 H]OT, read-out: Receptor Binding Results IC50 (nM) [^3 H]OT.
Setting [2] is: Receptor Binding Results IC50 (nM) [^3 H]-AVP-V1.
Setting [3] is: rat kidney medulla membranes, 2 nM [^3 H]AVP, read-out: Receptor Binding Results IC50 (nM) [^3 H]-AVP-V2.
Setting [4] is: read-out: Receptor Binding Results IC50 (nM) [^3 H]-AVP-V1.

`CC[C@H](C)[C@@H]1NC(=O)[C@@H](Cc2ccccc2)NC(=O)[C@@H]2CCCN2C(=O)[C@@H](Cc2ccccc2)N(C)C(=O)[C@H](CC(=O)OC(C)(C)C)NC(=O)[C@H]2CCCCN2C1=O` [Example 115, c-[D-Phenylalanyl-L-isoleucyl-D-pipecolyl(O-tert-butyl)-L-aspartyl-N-methyl-D-phenylalanyl-L-prolyl]] (cyclo(D(OtBu)[dNMeF]P[dF]I[dPip])): the half-inhibitory concentration (IC50) on uterine OT receptors (setting [1]) was 460 nM; on AVP-V1 sites (setting [2]), > 10000 nM; at AVP-V2 sites (setting [3]), 10000 nM.
For the compound `CC[C@H](C)[C@@H]1NC(=O)[C@@H](Cc2ccc3ccccc3c2)NC(=O)[C@@H]2CCCN2C(=O)[C@@H](Cc2ccccc2)N(C)C(=O)[C@H](CCCCNC(=O)C2C[N+]3(C)CCC2CC3)NC(=O)[C@H]2CCCCN2C1=O` (stereo partly drawn) [Example 151, c-[D-2-Napthylalanyl-L-isoleucyl-D-pipecolyl-L-[N-(1-methyl-quinuclidinium-3-yl-carbonyl)]lysyl-D-(N-methyl)phenylalanyl-L-prolyl]] (cyclo(I[dPip]K(X7)[dNMeF]P[d2Nal])), the IC50 amounted to 10 nM on uterine OT receptors (setting [1]), 390 nM on AVP-V1 sites (setting [4]) and 82 nM at AVP-V2 sites.
On to `C=C1NC(=O)[C@H]2CCCN2C(=O)[C@H]([C@@H](C)CC)NC(=O)[C@@H](Cc2ccccc2)NC(=O)[C@@H]2CCCN2C(=O)[C@@H](Cc2ccccc2)N(C)C1=O` [Example 117, c-[D-Phenylalanyl-L-isoleucyl-D-prolyl-dehydroalanyl-N-methyl-D-phenylalanyl-L-prolyl]] (cyclo([Dha][dNMeF]P[dF]I[dP])), for which the IC50 at uterine OT receptors (setting [1]), on AVP-V1 sites (setting [2]) and at AVP-V2 sites (setting [3]) was > 10000 nM throughout.
In the case of `CC[C@H](C)[C@@H]1NC(=O)[C@@H](Cc2ccccc2)NC(=O)[C@@H]2CCCN2C(=O)[C@@H](Cc2ccccc2)NC(=O)[C@@H]2CCCCN2C(=O)[C@H]2CN(C(=O)OCc3ccccc3)CCN2C1=O` [Example 83, c-[D-Phenylalanyl-L-isoleucinyl-D-piperazin-2-yl-(4-Cbz)-L-pipecolyl-D-phenylalanyl-L-prolyl]] (cyclo(I[dPip(4-aza,4-Cbz)][Pip][dF]P[dF])), the IC50 at uterine OT receptors (setting [1]) stood at 940 nM; on AVP-V1 sites (setting [2]) it was 10000 nM; on AVP-V2 sites (setting [3]) it was 10000 nM.
With `CC[C@H](C)[C@@H]1NC(=O)[C@@H](Cc2c[nH]c3ccccc23)NC(=O)[C@@H]2CCCN2C(=O)[C@@H](Cc2c[nH]c3ccccc23)NC(=O)[C@H](CCCCNC(=O)OCc2ccccc2)NC(=O)[C@H]2CCCCN2C1=O` [Example 29, Cyclo[D-tryptophanyl-L-isoleucyl-D-pipecolyl-L-(carbobenzloxy)lysyl-D-tryptophanyl-L-prolyl]] (cyclo(I[dPip]K(Cbz)[dW]P[dW])), the inhibition at 0.1 µM on uterine OT receptors (1 h, @ 100 (nM), read-out: [^3 H]OT: percent inhibition of radioligand at the given concentration) came to 32%. In addition, the IC50 at AVP-V1 sites (setting [2]) and on AVP-V2 sites (setting [3]) was > 10000 nM in each case.
In the case of `CC(C)C[C@@H]1NC(=O)[C@@H](Cc2c[nH]c3ccccc23)NC(=O)[C@@H]2CCCN2C(=O)[C@@H](Cc2c[nH]cn2)NC(=O)[C@@H]2CCCCN2C(=O)[C@H]2CCCCN2C1=O` [Example 21, Cyclo[D-tryptophanyl-L-leucyl-D-pipecolyl-L-pipecolyl-D-histidyl-L-prolyl]] (cyclo(L[dPip][Pip][dH]P[dW])), the IC50 at uterine OT receptors (Receptor Binding Results IC50 (nM) [^3 H]OT) was 190 nM; on AVP-V1 sites (setting [2]), 10000 nM; on AVP-V2 sites (Receptor Binding Results IC50 (nM) [^3 H]-AVP-V2), > 10000 nM.
For `CC[C@H](C)[C@@H]1NC(=O)[C@@H](Cc2c[nH]c3ccccc23)NC(=O)[C@@H]2CCCN2C(=O)[C@@H](Cc2ccccc2)N(C)C(=O)[C@@H]2CCCCN2C(=O)[C@H]2CCCCN2C1=O` [Example 30, Cyclo[D-tryptophanyl-L-isoleucyl-D-pipecolyl-L-pipecolyl-D(N^α methyl)phenylalanyl-L-prolyl]] (cyclo(I[dPip][Pip][dNMeF]P[dW])), the IC50 at uterine OT receptors (setting [1]) was found to be 20 nM; on AVP-V1 sites (setting [4]), 12000 nM; at AVP-V2 sites (read-out: Receptor Binding Results IC50 (nM) [^3 H]-AVP-V2), 747 nM.

By IC50 is commonly meant the concentration that inhibits the measured activity by half.
